Assay results as given in patent US20080021045A1, “7-Amino-5-Halopyrazolopyrimidines with a Fungicidal Action” (BAYER CROPSCIENCE AKTIENGESELLSCHSFT, priority 2003, published 2008).

Experiment: logP determination by HPLC (EEC Directive 79/831 Annex V. A8)
Assay type: physicochemical
Conditions: gradient method, acetonitrile/0.1% aqueous phosphoric acid

Row | Compound | chromatographic logP
1 | CCC(C)c1c(Cl)nc2c(C#N)cnn2c1NC(C)C(C)C (stereo not drawn) [Example 1, 3-cyano-5-chloro-6-(sec-butyl)-7-[(S+)-3-methyl-2-butylamino]pyrazolo[1,5-a]pyrimidine] | 4.59
2 | CCC(C)c1c(Cl)nc2c(C=O)cnn2c1NC(C)C(C)C (stereo not drawn) [Example 2, 3-formyl-5-chloro-6-(sec-butyl)-7-(3-methyl-2-butylamino)pyrazolo[1,5-a]pyrimidine] | 4.17
3 | CCC(C)c1c(Cl)nc2c(C#N)cnn2c1Cl (stereo not drawn) [Example 30, 3-cyano-5,7-dichloro-6-(sec-butyl)pyrazolo[1,5-a]pyrimidine] | 3.27
